# Read-outs that look alike come from different tables or passages of the source.
# Tests used:
# Format in all cases: cell-based
# HIV-1/LAI = experiment: In vitro antiviral activity in acutely infected MT4 cells, wild type; conditions: read-out: median EC50
# Experimental: (§1) Determination of the antiviral activity of a compound was done as described in Pauwels R. et al. (J Virol Methods 1988; 20(4):309-21). Various concentrations of the test compounds were brought into each well of a flat-bottom microtiter plate. Subsequently, HIV and MT4 cells were added to a final concentration of 200-250 50% cell culture infectious doses (CCID50)/well and 30,000 cells/well, respectively. After 5 days of incubation (37° C., 5% CO2), the cytopathic effect of the replicating virus was determined by the tetrazolium colorimetric MTT method. The dose protecting 50% of the cells from virus cytopathic effect was defined as the EC50, while the dose achieving 90% protection was defined as the EC90.
# (§2) MT4-LTR-EGFP cells were infected at a multiplicity of infection (MOI) of 0.01 to 0.001 CCID50/cell in the presence of inhibitor. The starting concentration of the inhibitor was two to tee times the EC50, a suboptimal concentration. The cultures were sub-cultivated and scored microscopically on virus-induced fluorescence and cytopathicity every 3-4 days. The cultures were sub-cultivated in the presence of the same compound concentration until signs of virus replication were observed. The escaping virus was further cultivated in the presence of the same inhibitor concentration in order to enrich the population in resistant variants. If full virus breakthrough was observed the supernatant was collected and stored (new virus strain). Afterwards, the same virus was challenged with a higher compound concentration in order to select variants able to grow in the presence of as high as possible inhibitor concentrations. From the new viruses, a virus stock was grown in the absence of inhibitor.
# (§3) In vitro drug selection experiments starting from wild-type HIV-1 under pressure of compound 1, compound 2, and Nelfinavir (NFV) have been performed. Tables 1, 2, 3, 4, and 5 show the genotypic and phenotypic characterization of the selected strains.
# [1] = tested on: HIV-1 strain selected with Comp 1 (20 nM, 94 days), protease R41G/R V82V/I; experiment: In vitro antiviral activity in acutely infected MT4 cells, selected strain
# Experimental: as §1, §2, §3
# [2] = tested on: HIV-1 strain selected with Comp 1 (40 nM, 161 days), protease R41G V82I; experiment: as above
# Experimental: as §1, §2, §3
# [3] = tested on: HIV-1/LAI strain selected with Comp 1 (100 nM, 195 days), protease S37N R41S K70E; experiment: as above
# Experimental: as §1, §2, §3
# [4] = tested on: HIV-1/LAI strain selected with Comp 1 (30 nM, 70 days), protease K70E; experiment: as above
# Experimental: as §1, §2, §3
# [5] = tested on: HIV-1/LAI strain selected with Compound 1 (100 nM, 188 days), protease R41T K70E; experiment: as above
# Experimental: as §1, §2, §3
# [6] = tested on: HIV-1/LAI strain selected with Compound 1 (30 nM, 45 days), protease R41T; experiment: as above
# Experimental: as §1, §2, §3
# [7] = tested on: HIV-1/LAI strain selected with NFV (9000 nM, 11l days), protease L10F D30N R41R/K K45I/K M46I V77I I84V/I I85V/I N88D; experiment: as above
# Experimental: as §1, §2, §3
# [8] = tested on: HIV-1/LAI strain selected with NFV (9000 nM, 140 days), protease L10F D30N R41R/K K45I/K M46I V77I I84V N88D; experiment: as above
# Experimental: as §1, §2, §3
# [9] = tested on: HIV-1/LAI strain selected with Compound 1 (100 nM, 97 days), protease R41T K70E; experiment: as above
# Experimental: as §1
# as §2, with “The cultures were sub-cultivated in the presence of the same compound concentration until signs of virus replication were observed.” left out, “Afterwards, the same virus was challenged with a higher compound concentration in order to select variants able to grow in the presence of as high as possible inhibitor concentrations.” left out
# [10] = tested on: HIV-1/LAI strain selected with Compound 2 (100 nM), protease R41I; experiment: as above; conditions: Human immunodeficiency virus 1, Table 3, R41I strain selected with Compound 2 100 nM (head lists 116, 200, 264 days; assignment unclear), read-out: median EC50
# Experimental: as §1
# as §2, with “The cultures were sub-cultivated in the presence of the same compound concentration until signs of virus replication were observed.” left out, “Afterwards, the same virus was challenged with a higher compound concentration in order to select variants able to grow in the presence of as high as possible inhibitor concentrations.” left out
# [11] = tested on: HIV-1 starting strain of Table 4 (no compound, no mutations); experiment: In vitro antiviral activity in acutely infected MT4 cells, starting strain
# Experimental: as §1, §2, §3
smiles,measurement,setting,value
CC(C)(C)NC(=O)[C@@H]1C[C@@H]2CCCC[C@@H]2CN1C[C@@H](O)[C@H](Cc1ccccc1)NC(=O)[C@H](CC(N)=O)NC(=O)c1ccc2ccccc2n1 [Saquinavir],EC50,"HIV-1/LAI; Human immunodeficiency virus 1, MT4, Table 1, wild-type HIV/LAI",7.8 nM
same,EC50,"HIV-1/LAI; Human immunodeficiency virus 1, MT4, Table 2, wild-type HIV-1/LAI",5.6 nM
same,EC50,"HIV-1/LAI; Human immunodeficiency virus 1, MT4, Table 3, wild-type HIV-1/LAI",5.6 nM
same,EC50,"HIV-1/LAI; Human immunodeficiency virus 1, MT4, Table 4, wild-type HIV-1/LAI",5.6 nM
same,EC50,"HIV-1/LAI; Human immunodeficiency virus 1, MT4, Table 5, wild-type HIV-1/LAI",5.6 nM
same,EC50,"[1]; Human immunodeficiency virus 1, Table 4, strain R41G/R V82V/I (Comp 1 20 nM, 94 days), read-out: median EC50",0.9 nM
same,median FC (fold change in EC50 as compared to wild type),"[1]; Table 4, strain R41G/R V82V/I (Comp 1 20 nM, 94 days)",0
same,EC50,"[2]; Human immunodeficiency virus 1, Table 4, strain R41G V82I (Comp 1 40 nM, 161 days), read-out: median EC50",1 nM
same,median FC (fold change in EC50 as compared to wild type),"[2]; Table 4, strain R41G V82I (Comp 1 40 nM, 161 days)",0
same,EC50,"[3]; Human immunodeficiency virus 1, Table 2, strain S37N R41S K70E (Comp 1 100 nM, 195 days), read-out: median EC50",0.9 nM
same,median FC (fold change in EC50 as compared to wild type),"[3]; Table 2, strain S37N R41S K70E (Comp 1 100 nM, 195 days)",0.2
same,EC50,"[4]; Human immunodeficiency virus 1, Table 2, strain K70E (Comp 1 30 nM, 70 days), read-out: median EC50",6 nM
same,median FC (fold change in EC50 as compared to wild type),"[4]; Table 2, strain K70E (Comp 1 30 nM, 70 days)",1
same,EC50,"[5]; Human immunodeficiency virus 1, Table 1, strain R41T K70E (Compound 1 100 nM, 188 days), read-out: median EC50",150 nM
same,median FC (fold change in EC50 as compared to wild type),"[5]; Table 1, strain R41T K70E (Compound 1 100 nM, 188 days)",20
same,EC50,"[6]; Human immunodeficiency virus 1, Table 1, strain R41T (Compound 1 30 nM, 45 days), read-out: median EC50",30 nM
same,median FC (fold change in EC50 as compared to wild type),"[6]; Table 1, strain R41T (Compound 1 30 nM, 45 days)",4
same,EC50,"[7]; Human immunodeficiency virus 1, Table 5, strain L10F D30N R41R/K K45I/K M46I V77I I84V/I I85V/I N88D (NFV 9000 nM, 11l days), read-out: median EC50",15 nM
same,median FC (fold change in EC50 as compared to wild type),"[7]; Table 5, strain L10F D30N R41R/K K45I/K M46I V77I I84V/I I85V/I N88D (NFV 9000 nM, 11l days)",3
same,EC50,"[8]; Human immunodeficiency virus 1, Table 5, strain L10F D30N R41R/K K45I/K M46I V77I I84V N88D (NFV 9000 nM, 140 days), read-out: median EC50",34 nM
same,median FC (fold change in EC50 as compared to wild type),"[8]; Table 5, strain L10F D30N R41R/K K45I/K M46I V77I I84V N88D (NFV 9000 nM, 140 days)",6
same,EC50,"[9]; Human immunodeficiency virus 1, Table 1, strain R41T K70E (Compound 1 100 nM, 97 days), read-out: median EC50",35 nM
same,median FC (fold change in EC50 as compared to wild type),"[9]; Table 1, strain R41T K70E (Compound 1 100 nM, 97 days)",4
same,EC50,[10],45 nM
same,EC50,"[11]; Human immunodeficiency virus 1, starting strain HIV-1, no compound, read-out: median EC50",8.9 nM
same,median FC (fold change in EC50 as compared to wild type),"[11]; starting strain HIV-1, no compound",2

# — patent US8592161B2, “Mutational profiles in HIV-1 protease correlated with phenotypic drug resistance” (Janssen R&D Ireland, priority 2002, dated 2013)
